Reference: US20080227851A1, “L[…] L[…]” (priority 2007, published 2008)
Converted amounts (≈) assume the structure as drawn.

Key:
MDA-MB-435 = conditions: cited from earlier work
[1] = system: SK-OV-3 (ovarian carcinoma) cell line; conditions: cited from earlier work
SKVLB-1 = conditions: cited from earlier work; for Resistance factor (SKVLB-1/SK-OV-3): ratio of IC50 SKVLB-1/SK-OV-3
A10 cells = conditions: 2-20 μM; cited from earlier work
KB cells = conditions: cited from earlier work
[2] = system: human breast carcinoma MDA-MB-435; experiment: sulforhodamine assay, proliferation of human tumor cells, MDA-MB-435; type: cell-based; conditions: MDA-MB-435, sulforhodamine assay
Experimental: Laulimalide analogs disclosed herein were evaluated for the ability to inhibit the proliferation of human tumor cells using the sulforhodamine assay format (Mooberry et al., Cancer Research, 1999, 59, 653-660). The two cells lines selected were the human breast carcinoma MDA-MB-435 and the corresponding MDR cell line NCI/ADR, which overexpresses the PGP efflux pump protein.

[3] = system: human umbilical vein endothelial cells (HUVEC); conditions: read-out: IC50, inhibition of HUVEC proliferation; cited from earlier work
[4] = 0.01 N solution of HCl in acetone; cited from earlier work
purified tubulin = conditions: cited from earlier work
tubulin polymer = conditions: radiolabeled Taxol; cited from earlier work
[5] = system: human umbilical vein endothelial cells (HUVEC); conditions: cited from earlier work
[6] = system: MDA-MB-435 (human breast adenocarcinoma) cell line; conditions: cited from earlier work
[7] = SKVLB-1 (P-gp overexpressing MDR)

Q: For `CC(=O)O[C@H]1C(=O)[C@@]2(C)[C@H]([C@H](OC(=O)c3ccccc3)[C@]3(O)C[C@H](OC(=O)[C@H](O)[C@@H](NC(=O)c4ccccc4)c4ccccc4)C(C)=C1C3(C)C)[C@]1(OC(C)=O)CO[C@@H]1C[C@@H]2O` [Taxol, paclitaxel], which IC50 (MDA-MB-435) is on record?
A: The IC50 was 1.02 ± 0.25 nM.

Q: And the IC50 [1]?
A: The IC50 was 1.71 ± 1.07 nM.

Q: What about the IC50 (SKVLB-1; [7]) of the same molecule?
A: Its IC50 is > 100000 nM.

Q: And the “IC50 (nM)” value (SKVLB-1; [7])?
A: Its value is “completely ineffective”.

Q: And the “Resistance factor (SKVLB-1/SK-OV-3)” value (SKVLB-1)?
A: Its value is >58480.

Q: With `C=C1C[C@H](C)C[C@@H]2CC=C[C@@H](C/C=C\C(=O)O[C@H]3C[C@@H](O[C@H]3/C=C/[C@@H]3CC(C)=CCO3)[C@@H](O)[C@@H](O)C1)O2` [Isolaulimalide, isolaulimalide] as the molecule, how does the IC50 (MDA-MB-435) read?
A: The IC50 was 1970 ± 97 nM.

Q: And the IC50 [1]?
A: The IC50 was 2570 ± 290 nM.

Q: What about the IC50 (SKVLB-1; [7]) of the same molecule?
A: Its IC50 is 2650 ± 1380 nM.

Q: What about the “Resistance factor (SKVLB-1/SK-OV-3)” value (SKVLB-1) of the same molecule?
A: Its value is 1.03.

Q: And the microtubule bundling (A10 cells)?
A: The microtubule bundling was “no microtubule bundles were observed”.

Q: What about the “IC50, cytotoxic to KB cells” value (KB cells) of the same molecule?
A: The value was > 0.2 µg/mL.

Q: What does the source list for `C=C1C[C@H](C)C[C@@H]2CC=C[C@@H](C/C=C\C(=O)O[C@H]([C@@H](O)/C=C/[C@@H]3CC(C)=CCO3)C[C@@H]3O[C@H]3[C@@H](O)C1)O2` [Laulimalide, laulimalide]?
A: IC50 [2]: 5.7 ± 0.6 nM; IC50 (MDA-MB-435): 5.73 ± 0.58 nM; IC50 [1]: 11.5 ± 0.53 nM; IC50 (SKVLB-1; [7]): 1210 ± 490 nM; Resistance factor (SKVLB-1/SK-OV-3) (SKVLB-1): 105; IC50 [3]: 4 nM; time to complete acid-catalyzed decomposition to isolaulimalide [4]: four; microtubule bundling (A10 cells): caused bundling of microtubules similar to that induced by Taxol; polymerization of purified tubulin (purified tubulin): caused the polymerization of purified tubulin; competition with Taxol binding to tubulin polymer (tubulin polymer): does not compete with Taxol; concentration inhibiting tubule formation and VEGF-induced HUVEC migration [5]: subnanomolar; cell cycle arrest [6]: cell cycle arrest at the G2/M transition; IC50, cytotoxic to KB cells (KB cells): 0.015 µg/mL (≈ 0.0291 µM)
